Assay results from patent US20090176811A1, “Substituted 5,6,7,8-Tetrahydro-pyrido[4,3-d]pyrimidine-2-yl Compounds and 5,6,7,8-Tetrahydro-quinazoline-2-yl Compounds” (GRUENENTHAL GmbH, priority 2004, published 2009).

System: batrachotoxin (BTX) binding site of the sodium channel
Experiment: Affinity for the batrachotoxin (BTX) binding site of the sodium channel ([3H]-Batrachotoxinin A20 benzoate, rat cerebrocortex synaptosomes)
Details: [3H]-Batrachotoxinin A20 benzoate 10 nM, test concentration not given

Row | Structure (SMILES) | BTX inhibition
1 | O=C(Nc1ncc2c(n1)CCN(C(=O)c1ccc(F)cc1F)C2)c1ccc(Cl)cc1 [Example 152, 4-chloro-N-[6-(2,4-difluoro-benzoyl)-5,6,7,8-tetrahydro-pyrido[4,3-d]pyrimidin-2-yl]-benzamide] | 55
2 | CC(C)(C)c1ccc(C(=O)Nc2ncc3c(n2)CCN(C(=O)c2csc4ccccc24)C3)cc1 [Example 184, N-[6-(benzo[b]thiophene-3-carbonyl)-5,6,7,8-tetrahydro-pyrido[4,3-d]pyrimidin-2-yl]-4-tert-butyl-benzamide] | 87
3 | COc1ccccc1C(=O)Nc1ncc2c(n1)CCN(S(=O)(=O)c1c(C)cc(OC)c(C)c1C)C2 [Example 158, 2-methoxy-N-[6-(4-methoxy-2,3,6-trimethyl-benzenesulfonyl)-5,6,7,8-tetrahydro-pyrido[4,3-d]pyrimidin-2-yl]-benzamide] | 74
4 | Cc1ccc(C(=O)Nc2ncc3c(n2)CCN(S(=O)(=O)c2cc(F)ccc2C)C3)cc1 [Example 107, N-[6-(5-fluoro-2-methyl-benzenesulfonyl)-5,6,7,8-tetrahydro-pyrido[4,3-d]pyrimidin-2-yl]-4-methyl-benzamide] | 73
5 | CCc1ccc(C(=O)Nc2ncc3c(n2)CCN(S(=O)(=O)c2ccsc2)C3)cc1 [Example 121, 4-ethyl-N-[6-(thiophene-3-sulfonyl)-5,6,7,8-tetrahydro-pyrido[4,3-d]pyrimidin-2-yl]-benzamide] | 57
6 | O=C(Nc1ncc2c(n1)CCN(S(=O)(=O)c1ccc(Cl)cc1)C2)c1ccc(Cl)c(Cl)c1 [Example 71, 3,4-dichloro-N-[6-(4-chloro-benzenesulfonyl)-5,6,7,8-tetrahydro-pyrido[4,3-d]pyrimidin-2-yl]-benzamide] | 69
7 | Cc1cc(C(=O)NC2CCc3nc(NC(=O)c4cccs4)ncc3C2)ccc1Br (stereo not shown) [Example 115, thiophene-2-carboxylic acid [6-(4-bromo-3-methyl-benzoylamino)-5,6,7,8-tetrahydro-quinazolin-2-yl]-amide] | 82
8 | CC(C)C(NC(=O)OCC1c2ccccc2-c2ccccc21)C(=O)NC1CCc2nc(NC(=O)c3cccs3)ncc2C1 (stereo not shown) [Example 139, (2-methyl-1-{2-[(thiophene-2-carbonyl)-amino]-5,6,7,8-tetrahydro-quinazolin-6-ylcarbamoyl}-propyl)-carbamic acid 9H-fluoren-9-ylmethyl ester] | 62
9 | CCCCC(C)CCC(=O)N1CCc2nc(NC(=O)c3cccc4ccccc34)ncc2C1 (stereo not shown) [Example 193, naphthalene-1-carboxylic acid [6-(4-methyl-octanoyl)-5,6,7,8-tetrahydro-pyrido[4,3-d]pyrimidin-2-yl]-amide] | 84
10 | COc1cccc(C(=O)Nc2ncc3c(n2)CCN(C(=O)c2cccc(OC(F)(F)F)c2)C3)c1 [Example 199, 3-methoxy-N-[6-(3-trifluoromethoxy-benzoyl)-5,6,7,8-tetrahydro-pyrido[4,3-d]pyrimidin-2-yl]-benzamide] | 48
11 | Cc1oc(-c2ccccc2)cc1C(=O)N1CCc2nc(NC(=O)c3ccccc3F)ncc2C1 [Example 137, 2-fluoro-N-[6-(2-methyl-5-phenyl-furan-3-carbonyl)-5,6,7,8-tetrahydro-pyrido[4,3-d]pyrimidin-2-yl]-benzamide] | 43
12 | O=C(Nc1ncc2c(n1)CCN(C(=O)c1ccc(-c3cccs3)cc1)C2)c1cc(Cl)cc(Cl)c1 [Example 144, 3,5-dichloro-N-[6-(4-thiophen-2-yl-benzoyl)-5,6,7,8-tetrahydro-pyrido[4,3-d]pyrimidin-2-yl]-benzamide] | 81
13 | O=C(Nc1ncc2c(n1)CCN(C(=O)c1c(F)cccc1Cl)C2)c1cccc(Cl)c1 [Example 127, 3-chloro-N-[6-(2-chloro-6-fluoro-benzoyl)-5,6,7,8-tetrahydro-pyrido[4,3-d]pyrimidin-2-yl]-benzamide] | 30
14 | O=C(Nc1ncc2c(n1)CCN(S(=O)(=O)c1ccc(OC(F)(F)F)cc1)C2)c1ccc(Cl)c(Cl)c1 [Example 134, 3,4-dichloro-N-[6-(4-trifluoromethoxy-benzenesulfonyl)-5,6,7,8-tetrahydro-pyrido[4,3-d]pyrimidin-2-yl]-benzamide] | 64
15 | O=C(Nc1ncc2c(n1)CCC(NS(=O)(=O)c1ccc3c(c1)CN(C(=O)C(F)(F)F)CC3)C2)c1cccs1 (stereo not shown) [Example 147, thiophene-2-carboxylic acid {6-[2-(2,2,2-trifluoro-acetyl)-1,2,3,4-tetrahydro-isoquinoline-7-sulfonylamino]-5,6,7,8-tetrahydro-quinazolin-2-yl}-amide] | 48
16 | COc1ccccc1C(=O)Nc1ncc2c(n1)CCN(S(=O)(=O)c1ccc(Cl)s1)C2 [Example 86, N-[6-(5-chloro-thiophene-2-sulfonyl)-5,6,7,8-tetrahydro-pyrido[4,3-d]pyrimidin-2-yl]-2-methoxy-benzamide] | 62
17 | O=C(Nc1ncc2c(n1)CCN(C(=O)CCCCc1ccccc1)C2)c1ccccc1 [Example 190, N-[6-(5-phenyl-pentanoyl)-5,6,7,8-tetrahydro-pyrido[4,3-d]pyrimidin-2-yl]-benzamide] | 56
18 | O=C(Nc1ncc2c(n1)CCN(C(=O)c1ccc(OC(F)(F)F)cc1)C2)c1cc(Cl)cc(Cl)c1 [Example 192, 3,5-dichloro-N-[6-(4-trifluoromethoxy-benzoyl)-5,6,7,8-tetrahydro-pyrido[4,3-d]pyrimidin-2-yl]-benzamide] | 87
19 | Cc1ccc(C(=O)Nc2ncc3c(n2)CCN(C(=O)COc2cccc(Cl)c2)C3)cc1 [Example 189, N-{6-[2-(3-chloro-phenoxy)-acetyl]-5,6,7,8-tetrahydro-pyrido[4,3-d]pyrimidin-2-yl}-4-methyl-benzamide] | 55
20 | Cc1cccc(C(=O)Nc2ncc3c(n2)CCN(S(=O)(=O)c2cccc(C)c2)C3)c1 [Example 116, 3-methyl-N-[6-(toluene-3-sulfonyl)-5,6,7,8-tetrahydro-pyrido[4,3-d]pyrimidin-2-yl]-benzamide] | 53
21 | O=C(Nc1ncc2c(n1)CCN(C(=O)Cc1c(Cl)cccc1Cl)C2)c1cccc(Cl)c1 [Example 187, 3-chloro-N-{6-[2-(2,6-dichloro-phenyl)-acetyl]-5,6,7,8-tetrahydro-pyrido[4,3-d]pyrimidin-2-yl}-benzamide] | 43
22 | CCCC(=O)Nc1ncc2c(n1)CCC(NC(=O)c1ccc(Cc3ccccc3)o1)C2 (stereo not shown) [Example 133, 5-benzyl-furan-2-carboxylic acid (2-butyrylamino-5,6,7,8-tetrahydro-quinazolin-6-yl)-amide] | 39
23 | Cc1ccc([N+](=O)[O-])cc1S(=O)(=O)N1CCc2nc(NC(=O)c3ccccc3F)ncc2C1 [Example 150, 2-fluoro-N-[6-(2-methyl-5-nitro-benzenesulfonyl)-5,6,7,8-tetrahydro-pyrido[4,3-d]pyrimidin-2-yl]-benzamide] | 49
24 | Cc1ccc(C(=O)Nc2ncc3c(n2)CCN(C(=O)c2ccc(SC(F)(F)F)cc2)C3)cc1 [Example 148, 4-methyl-N-[6-(4-trifluoromethylsulfanyl-benzoyl)-5,6,7,8-tetrahydro-pyrido[4,3-d]pyrimidin-2-yl]-benzamide] | 85
25 | CCc1ccc(C(=O)Nc2ncc3c(n2)CCN(S(=O)(=O)c2ccc(OC)cc2)C3)cc1 [Example 172, 4-ethyl-N-[6-(4-methoxy-benzenesulfonyl)-5,6,7,8-tetrahydro-pyrido[4,3-d]pyrimidin-2-yl]-benzamide] | 57
